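Values below derive from 48-hour exposures of cells grown in 96-well plates, with endpoints linearly interpolated between the two concentrations bracketing the appropriate inhibition level. The concentration for 50% growth inhibition is given as GI50. TGI: total growth inhibition.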
Experiments:
Assay in all cases: growth of human tumour cells (NCI), 48 h
786-0 renal = system: 786-0 renal
A498 renal = system: A498 renal
A549 NSCLC = system: A549 NSCLC
ACHN renal = system: ACHN renal
BT-549 breast = system: BT-549 breast
CAKI-1 renal = system: CAKI-1 renal
CCRF-CEM leukemia = system: CCRF-CEM leukemia
COLO 205 colon = system: COLO 205 colon
DU-145 prostate = system: DU-145 prostate
EKVX NSCLC = system: EKVX NSCLC
HCC-2998 colon = system: HCC-2998 colon
HCT-116 colon = system: HCT-116 colon
HCT-15 colon = system: HCT-15 colon
HL-60(TB) leukemia = system: HL-60(TB) leukemia
HOP-62 NSCLC = system: HOP-62 NSCLC
HOP-92 NSCLC = system: HOP-92 NSCLC
HS 578T breast = system: HS 578T breast
HT29 colon = system: HT29 colon
IGROV1 ovarian = system: IGROV1 ovarian
K-562 leukemia = system: K-562 leukemia
KM12 colon = system: KM12 colon
LOX IMVI melanoma = system: LOX IMVI melanoma
M14 melanoma = system: M14 melanoma
MALME-3M melanoma = system: MALME-3M melanoma
MCF7 breast = system: MCF7 breast
MDA-MB-231 breast = system: MDA-MB-231 breast
MDA-MB-435 = system: MDA-MB-435
MDA-MB-468 breast = system: MDA-MB-468 breast
MOLT-4 leukemia = system: MOLT-4 leukemia
NCI-H226 lung = system: NCI-H226 lung
NCI-H23 lung = system: NCI-H23 lung
NCI-H460 lung = system: NCI-H460 lung
NCI-H522 lung = system: NCI-H522 lung
NCI/ADR-RES ovarian = system: NCI/ADR-RES ovarian
OVCAR-3 ovarian = system: OVCAR-3 ovarian
OVCAR-4 ovarian = system: OVCAR-4 ovarian
OVCAR-5 ovarian = system: OVCAR-5 ovarian
OVCAR-8 ovarian = system: OVCAR-8 ovarian
PC-3 prostate = system: PC-3 prostate
RPMI-8226 leukemia = system: RPMI-8226 leukemia
RXF 393 renal = system: RXF 393 renal
SF-268 CNS = system: SF-268 CNS
SF-295 CNS = system: SF-295 CNS
SF-539 CNS = system: SF-539 CNS
SK-MEL-2 melanoma = system: SK-MEL-2 melanoma
SK-MEL-28 melanoma = system: SK-MEL-28 melanoma
SK-MEL-5 melanoma = system: SK-MEL-5 melanoma
SK-OV-3 ovarian = system: SK-OV-3 ovarian
SN12C renal = system: SN12C renal
SNB-19 CNS = system: SNB-19 CNS
SNB-75 CNS = system: SNB-75 CNS
SR leukemia = system: SR leukemia
SW-620 colon = system: SW-620 colon
T-47D breast = system: T-47D breast
TK-10 renal = system: TK-10 renal
U251 CNS = system: U251 CNS
UACC-257 melanoma = system: UACC-257 melanoma
UACC-62 melanoma = system: UACC-62 melanoma
UO-31 renal = system: UO-31 renal

Q: With `C/C(=C\CC/C=C(\C)CC/C=C(\C)CC[C@@H](O)C(C)(C)O)CC/C=C(\C)CC[C@@H](O)C(C)(C)O` as the compound, how does the GI50 (786-0 renal) read?
A: 10.8 µM

Q: And the TGI (786-0 renal)?
A: 24.1 µM

Q: And the GI50 (A498 renal)?
A: 12.6 µM

Q: What about the TGI (A498 renal) of the same compound?
A: 25.7 µM

Q: And the GI50 (A549 NSCLC)?
A: 10 µM

Q: What about the TGI (A549 NSCLC) of the same compound?
A: 30.2 µM

Q: And the GI50 (ACHN renal)?
A: 5.78 µM

Q: And the TGI (ACHN renal)?
A: 18.3 µM

Q: And the GI50 (BT-549 breast)?
A: 5.14 µM

Q: What about the TGI (BT-549 breast) of the same compound?
A: 17.4 µM

Q: And the GI50 (CAKI-1 renal)?
A: 12.3 µM

Q: What about the TGI (CAKI-1 renal) of the same compound?
A: 25.1 µM

Q: And the GI50 (CCRF-CEM leukemia)?
A: 17.9 µM

Q: What about the TGI (CCRF-CEM leukemia) of the same compound?
A: 39.7 µM

Q: What about the GI50 (COLO 205 colon) of the same compound?
A: 17.8 µM

Q: And the TGI (COLO 205 colon)?
A: 34.6 µM

Q: What about the GI50 (DU-145 prostate) of the same compound?
A: 15.5 µM

Q: And the TGI (DU-145 prostate)?
A: 29 µM

Q: What about the GI50 (EKVX NSCLC) of the same compound?
A: 7.68 µM

Q: And the TGI (EKVX NSCLC)?
A: 20.5 µM

Q: And the GI50 (HCC-2998 colon)?
A: 13.5 µM

Q: And the TGI (HCC-2998 colon)?
A: 26.4 µM

Q: And the GI50 (HCT-116 colon)?
A: 6.39 µM

Q: And the TGI (HCT-116 colon)?
A: 21.3 µM

Q: What about the GI50 (HCT-15 colon) of the same compound?
A: 10.9 µM

Q: And the TGI (HCT-15 colon)?
A: 22.8 µM

Q: What about the GI50 (HL-60(TB) leukemia) of the same compound?
A: 3.1 µM

Q: And the TGI (HL-60(TB) leukemia)?
A: 11.2 µM

Q: And the GI50 (HOP-62 NSCLC)?
A: 17 µM

Q: What about the TGI (HOP-62 NSCLC) of the same compound?
A: 34.6 µM

Q: And the GI50 (HOP-92 NSCLC)?
A: 10.2 µM

Q: And the TGI (HOP-92 NSCLC)?
A: 23.9 µM

Q: What about the GI50 (HS 578T breast) of the same compound?
A: 10.3 µM

Q: And the TGI (HS 578T breast)?
A: 26.1 µM

Q: And the GI50 (HT29 colon)?
A: 12 µM

Q: What about the TGI (HT29 colon) of the same compound?
A: 27.4 µM

Q: What about the GI50 (IGROV1 ovarian) of the same compound?
A: 15.4 µM

Q: And the TGI (IGROV1 ovarian)?
A: 29.2 µM

Q: What about the GI50 (K-562 leukemia) of the same compound?
A: 5.07 µM

Q: And the TGI (K-562 leukemia)?
A: > 100 µM

Q: And the GI50 (KM12 colon)?
A: 13.9 µM

Q: What about the TGI (KM12 colon) of the same compound?
A: 27.3 µM

Q: What about the GI50 (LOX IMVI melanoma) of the same compound?
A: 13.4 µM

Q: And the TGI (LOX IMVI melanoma)?
A: 26.4 µM

Q: And the GI50 (M14 melanoma)?
A: 10.4 µM

Q: What about the TGI (M14 melanoma) of the same compound?
A: 23.1 µM

Q: And the GI50 (MALME-3M melanoma)?
A: 12 µM

Q: What about the TGI (MALME-3M melanoma) of the same compound?
A: 24.5 µM

Q: What about the GI50 (MCF7 breast) of the same compound?
A: 6.7 µM

Q: And the TGI (MCF7 breast)?
A: 20 µM

Q: And the GI50 (MDA-MB-231 breast)?
A: 13.6 µM

Q: What about the TGI (MDA-MB-231 breast) of the same compound?
A: 26.5 µM

Q: What about the GI50 (MDA-MB-435) of the same compound?
A: 14.7 µM

Q: And the TGI (MDA-MB-435)?
A: 28 µM

Q: What about the GI50 (MDA-MB-468 breast) of the same compound?
A: 7.97 µM

Q: What about the TGI (MDA-MB-468 breast) of the same compound?
A: 21.1 µM

Q: And the GI50 (MOLT-4 leukemia)?
A: 14.4 µM

Q: What about the TGI (MOLT-4 leukemia) of the same compound?
A: 44.6 µM

Q: What about the GI50 (NCI-H226 lung) of the same compound?
A: 12.6 µM

Q: And the TGI (NCI-H226 lung)?
A: 27.3 µM

Q: What about the GI50 (NCI-H23 lung) of the same compound?
A: 10.9 µM

Q: And the TGI (NCI-H23 lung)?
A: 23.2 µM

Q: And the GI50 (NCI-H460 lung)?
A: 11.3 µM

Q: What about the TGI (NCI-H460 lung) of the same compound?
A: 24.5 µM

Q: And the GI50 (NCI-H522 lung)?
A: 11 µM

Q: And the TGI (NCI-H522 lung)?
A: 25.9 µM

Q: What about the GI50 (NCI/ADR-RES ovarian) of the same compound?
A: 11.1 µM

Q: And the TGI (NCI/ADR-RES ovarian)?
A: 23.6 µM

Q: What about the GI50 (OVCAR-3 ovarian) of the same compound?
A: 13.7 µM

Q: What about the TGI (OVCAR-3 ovarian) of the same compound?
A: 26.7 µM

Q: What about the GI50 (OVCAR-4 ovarian) of the same compound?
A: 11 µM

Q: What about the TGI (OVCAR-4 ovarian) of the same compound?
A: 23.4 µM

Q: What about the GI50 (OVCAR-5 ovarian) of the same compound?
A: 14.5 µM

Q: And the TGI (OVCAR-5 ovarian)?
A: 27.8 µM

Q: What about the GI50 (OVCAR-8 ovarian) of the same compound?
A: 15 µM

Q: And the TGI (OVCAR-8 ovarian)?
A: 34.8 µM

Q: What about the GI50 (PC-3 prostate) of the same compound?
A: 5.16 µM

Q: What about the TGI (PC-3 prostate) of the same compound?
A: 20.1 µM

Q: What about the GI50 (RPMI-8226 leukemia) of the same compound?
A: 3.74 µM

Q: What about the TGI (RPMI-8226 leukemia) of the same compound?
A: 18.9 µM

Q: And the GI50 (RXF 393 renal)?
A: 5.93 µM

Q: What about the TGI (RXF 393 renal) of the same compound?
A: 20.1 µM

Q: What about the GI50 (SF-268 CNS) of the same compound?
A: 13.6 µM

Q: And the TGI (SF-268 CNS)?
A: 28.3 µM

Q: What about the GI50 (SF-295 CNS) of the same compound?
A: 7.84 µM

Q: And the TGI (SF-295 CNS)?
A: 20.9 µM

Q: And the GI50 (SF-539 CNS)?
A: 13.1 µM

Q: And the TGI (SF-539 CNS)?
A: 26.1 µM

Q: And the GI50 (SK-MEL-2 melanoma)?
A: 14.4 µM

Q: What about the TGI (SK-MEL-2 melanoma) of the same compound?
A: 30 µM

Q: What about the GI50 (SK-MEL-28 melanoma) of the same compound?
A: 12.6 µM

Q: What about the TGI (SK-MEL-28 melanoma) of the same compound?
A: 25.4 µM

Q: What about the GI50 (SK-MEL-5 melanoma) of the same compound?
A: 5.06 µM

Q: And the TGI (SK-MEL-5 melanoma)?
A: 17.4 µM

Q: And the GI50 (SK-OV-3 ovarian)?
A: 15.8 µM

Q: And the TGI (SK-OV-3 ovarian)?
A: 31 µM

Q: And the GI50 (SN12C renal)?
A: 12.6 µM

Q: And the TGI (SN12C renal)?
A: 25.3 µM

Q: What about the GI50 (SNB-19 CNS) of the same compound?
A: 15 µM

Q: And the TGI (SNB-19 CNS)?
A: 28.5 µM

Q: What about the GI50 (SNB-75 CNS) of the same compound?
A: 12.5 µM

Q: And the TGI (SNB-75 CNS)?
A: 25 µM

Q: And the GI50 (SR leukemia)?
A: 18.5 µM

Q: And the TGI (SR leukemia)?
A: 67.8 µM

Q: And the GI50 (SW-620 colon)?
A: 14.9 µM

Q: And the TGI (SW-620 colon)?
A: 29.4 µM

Q: And the GI50 (T-47D breast)?
A: 7.75 µM

Q: And the TGI (T-47D breast)?
A: 25 µM

Q: And the GI50 (TK-10 renal)?
A: 17.6 µM

Q: What about the TGI (TK-10 renal) of the same compound?
A: 32.5 µM

Q: And the GI50 (U251 CNS)?
A: 13.4 µM

Q: And the TGI (U251 CNS)?
A: 38.1 µM

Q: And the GI50 (UACC-257 melanoma)?
A: 10.7 µM

Q: What about the TGI (UACC-257 melanoma) of the same compound?
A: 23.7 µM

Q: And the GI50 (UACC-62 melanoma)?
A: 9.71 µM

Q: What about the TGI (UACC-62 melanoma) of the same compound?
A: 21.6 µM

Q: And the GI50 (UO-31 renal)?
A: 7.71 µM

Q: What about the TGI (UO-31 renal) of the same compound?
A: 20.7 µM

— PubChem BioAssay (NCI)
